Data from PubChem BioAssay (NCI).
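A five-concentration, 48-hour dose response in 96-well plates underlies each endpoint, interpolated linearly between surrounding concentrations. At the GI50, growth is halved. TGI: total growth inhibition.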

Tests used:
Assay in all cases: inhibition of tumour cell growth, NCI panel, 48 h
OVCAR-8 ovarian = test system: OVCAR-8 ovarian
CAKI-1 renal = test system: CAKI-1 renal
NCI-H522 lung = test system: NCI-H522 lung
ACHN renal = test system: ACHN renal
M14 melanoma = test system: M14 melanoma
HL-60(TB) leukemia = test system: HL-60(TB) leukemia
786-0 renal = test system: 786-0 renal
SK-MEL-2 melanoma = test system: SK-MEL-2 melanoma

COC(=O)OCC1OC(N2C(=O)NC(=O)C(I)C2N=[N+]=[N-])CC1OC(=O)OC (centres undefined)
TGI (OVCAR-8 ovarian): > 100 µM | TGI (CAKI-1 renal): > 100 µM | TGI (NCI-H522 lung): > 100 µM | TGI (ACHN renal): > 100 µM | TGI (M14 melanoma): > 100 µM | TGI (HL-60(TB) leukemia): > 100 µM | TGI (786-0 renal): > 100 µM

O=c1/c(=C/c2cccc3ccccc23)sc2nc3ccccc3n12
TGI (OVCAR-8 ovarian): > 100 µM | TGI (CAKI-1 renal): > 100 µM | TGI (NCI-H522 lung): > 100 µM | TGI (SK-MEL-2 melanoma): > 100 µM | TGI (ACHN renal): > 100 µM | TGI (M14 melanoma): > 100 µM | TGI (HL-60(TB) leukemia): > 100 µM | TGI (786-0 renal): > 100 µM

COC(=O)c1cnc2nc(N3CCOCC3)[nH]n2c1=O
TGI (OVCAR-8 ovarian): > 100 µM | TGI (CAKI-1 renal): > 100 µM | TGI (NCI-H522 lung): > 100 µM | TGI (SK-MEL-2 melanoma): > 100 µM | TGI (ACHN renal): > 100 µM | TGI (M14 melanoma): > 100 µM | TGI (HL-60(TB) leukemia): > 100 µM | TGI (786-0 renal): > 100 µM

[Cu+2].[Cu+2].[O-]c1ccccc1C=Nc1ccccc1[O-].[O-]c1ccccc1C=Nc1ccccc1[O-]
GI50 (OVCAR-8 ovarian): 8.16 µM | TGI (OVCAR-8 ovarian): 31.6 µM | GI50 (CAKI-1 renal): 10.8 µM | TGI (CAKI-1 renal): 22.8 µM | GI50 (NCI-H522 lung): 2.39 µM | TGI (NCI-H522 lung): 6.24 µM | GI50 (SK-MEL-2 melanoma): 11.5 µM | TGI (SK-MEL-2 melanoma): 24.4 µM | GI50 (ACHN renal): 7.81 µM | TGI (ACHN renal): 20.8 µM | GI50 (M14 melanoma): 4.45 µM | TGI (M14 melanoma): 15.3 µM | GI50 (HL-60(TB) leukemia): 2.52 µM | TGI (HL-60(TB) leukemia): 7.24 µM | GI50 (786-0 renal): 7.24 µM | TGI (786-0 renal): 20.3 µM

O=CC1=CCCC2(C1)OCCO2
TGI (OVCAR-8 ovarian): > 100 µM | TGI (CAKI-1 renal): > 100 µM | TGI (NCI-H522 lung): > 100 µM | TGI (SK-MEL-2 melanoma): > 100 µM | TGI (M14 melanoma): > 100 µM | TGI (HL-60(TB) leukemia): > 100 µM | TGI (786-0 renal): > 100 µM

CCCCN(CC)C(=O)C(=O)C1C(=O)Nc2ccccc2S1=O (centres undefined)
TGI (OVCAR-8 ovarian): > 100 µM | TGI (CAKI-1 renal): > 100 µM | TGI (NCI-H522 lung): > 100 µM | TGI (SK-MEL-2 melanoma): > 100 µM | TGI (ACHN renal): > 100 µM | TGI (M14 melanoma): > 100 µM | TGI (786-0 renal): > 100 µM

COc1cc2c(cc1OC)C1c3ccccc3C(C#N)(C2)N(C(=O)c2ccccc2)C1O (centres undefined)
TGI (OVCAR-8 ovarian): > 100 µM | TGI (NCI-H522 lung): 56.4 µM | TGI (SK-MEL-2 melanoma): > 100 µM | TGI (ACHN renal): > 100 µM | TGI (M14 melanoma): > 100 µM | TGI (HL-60(TB) leukemia): > 100 µM | TGI (786-0 renal): > 100 µM

CN(C)CCNC(=O)c1ccc2ccc3cccnc3c2n1
TGI (OVCAR-8 ovarian): > 100 µM | TGI (CAKI-1 renal): > 85.5 µM | TGI (NCI-H522 lung): 25.5 µM | TGI (SK-MEL-2 melanoma): 29.3 µM | TGI (ACHN renal): 97.3 µM | TGI (M14 melanoma): 33.1 µM | TGI (HL-60(TB) leukemia): > 84 µM | TGI (786-0 renal): > 100 µM

CC(=O)[CH-]C(=O)c1ccccc1.CC(=O)[CH-]C(=O)c1ccccc1.[Nd+3].[OH-].[OH3+]
GI50 (OVCAR-8 ovarian): > 100 µM | TGI (OVCAR-8 ovarian): > 100 µM | GI50 (CAKI-1 renal): > 100 µM | TGI (CAKI-1 renal): > 100 µM | GI50 (NCI-H522 lung): > 100 µM | TGI (NCI-H522 lung): > 100 µM | GI50 (SK-MEL-2 melanoma): > 100 µM | TGI (SK-MEL-2 melanoma): > 100 µM | GI50 (ACHN renal): > 100 µM | TGI (ACHN renal): > 100 µM | GI50 (M14 melanoma): > 100 µM | TGI (M14 melanoma): > 100 µM | GI50 (HL-60(TB) leukemia): > 100 µM | TGI (HL-60(TB) leukemia): > 100 µM | GI50 (786-0 renal): > 100 µM | TGI (786-0 renal): > 100 µM
